“And” between values parts separate entries of the source, which are not always exact repeats. Identical values can stand only once. Where a SMILES comes first, the peptide text is derived from it. [ ]: non-standard residue; d: D form. Hyp = O=C(O)[C@@H]1C[C@@H](O)CN1
Tests used:
Format in all cases: cell-based, human
IL-10 = assay: Example 8 main study Luminex, LPS hPBMCs: IL-10; conditions: for IL-10 Concentration: individual replicates; for IL-10 Concentration (pg/ml), Mean: mean of replicates
Method: (§1) Human PBMCs were pretreated with YY-101, YDE-011, YDE-043 or reference compound; Xiidra® at various concentration (ranging from […] to 500 nM) for 2 h before stimulation. An equal volume of 0.5% DMSO was used as a vehicle control. Then, the cells were treated with LPS at 5 ug/ml, which was selected based on the pilot study. The supernatants from treated cells were harvested at 24 h and placed in a 96 well for Luminex cytokine & chemokine profiling using a Luminex 200 multiplex assay (Luminex; R&D system, USA).
(§2) The main study arm with triplicate wells per group in a 24-well plate: • 1. Blank • 2. PBMC: 0.5% DMSO • 3. PBMC+LPS (5 ug/ml) • 4. PBMC+YY-101 500 nM • 5. PBMC+YY-101 50 nM • 6. PBMC+YY-101 5 nM • 7. PBMC+YY-101 0.5 nM • 8. PBMC+LPS (5 ug/ml)+Xiidra® 500 nM • 9. PBMC+LPS (5 ug/ml)+Xiidra® 50 nM • 10. PBMC+LPS (5 ug/ml)+Xiidra® 5 nM • 11. PBMC+LPS (5 ug/ml)+Xiidra® 0.5 nM • 12. PBMC+LPS (5 ug/ml)+Xiidra® 0.05 nM • 13. PBMC+LPS (5 ug/ml)+Xiidra® 0.005 nM • 14. PBMC+LPS (5 ug/ml)+YY-101 500 nM • 15. PBMC+LPS (5 ug/ml)+YY-101 50 nM • 16. PBMC+LPS (5 ug/ml)+YY-101 5 nM • 17. PBMC+LPS (5 ug/ml)+YY-101 0.5 nM • 18. PBMC+LPS (5 ug/ml)+YY-101 0.05 nM • 19. PBMC+LPS (5 ug/ml)+YY-101 0.005 nM • 20. PBMC+LPS (5 ug/ml)+YDE-011 500 nM • 21. PBMC+LPS (5 ug/ml)+YDE-011 50 nM • 22. PBMC+LPS (5 ug/ml)+YDE-011 5 nM • 23. PBMC+LPS (5 ug/ml)+YDE-011 0.5 nM • 24. PBMC+LPS (5 ug/ml)+YDE-011 0.05 nM • 25. PBMC+LPS (5 ug/ml)+YDE-011 0.005 nM • 26. PBMC+LPS (5 ug/ml)+YDE-043 500 nM • 27. PBMC+LPS (5 ug/ml)+YDE-043 50 nM • 28. PBMC+LPS (5 ug/ml)+YDE-043 5 nM • 29. PBMC+LPS (5 ug/ml)+YDE-043 0.5 nM • 30. PBMC+LPS (5 ug/ml)+YDE-043 0.05 nM • 31. PBMC+LPS (5 ug/ml)+YDE-043 0.005 nM
(§3) Multiplex assay was used to measure 30 cytokines and chemokines. The 1:200 diluted cell supernatant and serial dilution of the standard were dispensed into a 96 well plate at 50 ul/well. Then, the pre-mixed cocktail of antibody-coated magnetic beads was dispensed at 50 ul/well and incubated at room temperature for 2 h in a horizontal orbital microplate shaker at 800±500 rpm. The beads were washed using a magnetic device to prevent loss. The biotin-antibody was dispensed in 50 ul of each well and incubated at room temperature for 1 h in a shaker at 800±500 rpm. After washing, streptavidin-PE was added at 50 ul/well and incubated at room temperature for 30 min in a shaker under the same conditions. Finally, after washing, wash buffer (100 ul/well) was added to the plate and incubated in a shaker for 2 min. The Luminex™ 200 setting were set according to the manufacturer's protocol. The data was calculated with a standard five-parameter logistic nonlinear regression analysis of the data (xPonent software 4.2, USA). Results were presented as concentration (ng/ml or pg/ml).

MMP-3 = assay: Example 8 main study Luminex, LPS hPBMCs: MMP-3; conditions: for MMP-3 Concentration: single replicates
Method: as §1, §2, §3

IL-8/CXCL8 = assay: Example 8 main study Luminex, LPS hPBMCs: IL-8/CXCL8; conditions: for IL-8/CXCL8 Concentration: single replicates (1st, 2nd, 3rd)
Method: as §1, §2, §3

[1] = PBMC + LPS(5 ug/ml) + test article 0.005 nM
[2] = PBMC + LPS(5 ug/ml) + test article 0.05 nM
[3] = PBMC + LPS(5 ug/ml) + test article 0.5 nM
[4] = PBMC + LPS(5 ug/ml) + test article 5 nM
[5] = PBMC + LPS(5 ug/ml) + test article 50 nM
[6] = PBMC + LPS(5 ug/ml) + test article 500 nM
[7] = at as low as 5 μM, LPS 5 ug/mL 24 hrs
[8] = PBMC + LPS(5 ug/ml) + YDE011 0.005 nM
[9] = PBMC + LPS(5 ug/ml) + YDE011 0.05 nM
[10] = PBMC + LPS(5 ug/ml) + YDE011 0.5 nM
[11] = PBMC + LPS(5 ug/ml) + YDE011 5 nM
[12] = PBMC + LPS(5 ug/ml) + YDE011 50 nM
[13] = PBMC + LPS(5 ug/ml) + YDE011 500 nM

**Q.** For `CC(C)C[C@H](NC(=O)CNC(=O)[C@H](CC(C)C)NC(=O)[C@H](CCC(N)=O)NC(=O)CNC(=O)[C@@H]1C[C@@H](O)CN1)C(=O)N[C@@H](C)C(=O)NCC(=O)N1CCC[C@H]1C(=O)N[C@@H](CCCCN)C(=O)O` [YDE-011] (H-[Hyp]GQLGLAGPK-OH), which “IL-10 Concentration” value (IL-10; [1]) is on record?
**A.** 624.7 pg/mL and 409.5 pg/mL and 531.7 pg/mL

**Q.** And the “IL-10 Concentration (pg/ml), Mean” value (IL-10; [1])?
**A.** 521.9 pg/mL

**Q.** And the “IL-10 Concentration” value (IL-10; [2])?
**A.** 729.2 pg/mL and 611.5 pg/mL and 651.0 pg/mL

**Q.** What about the “IL-10 Concentration (pg/ml), Mean” value (IL-10; [2]) of the same molecule?
**A.** 663.9 pg/mL

**Q.** And the “IL-10 Concentration” value (IL-10; [3])?
**A.** 409.5 pg/ml (2×) and 297.6 pg/ml

**Q.** And the “IL-10 Concentration (pg/ml), Mean” value (IL-10; [3])?
**A.** 372.2 pg/mL

**Q.** And the “IL-10 Concentration” value (IL-10; [4])?
**A.** 181.1 pg/mL and 210.8 pg/mL and 381.9 pg/mL

**Q.** What about the “IL-10 Concentration (pg/ml), Mean” value (IL-10; [4]) of the same molecule?
**A.** 257.9 pg/mL

**Q.** And the “IL-10 Concentration” value (IL-10; [5])?
**A.** 518.2 pg/mL and 845.0 pg/mL and <2.59 pg/mL

**Q.** What about the “IL-10 Concentration (pg/ml), Mean” value (IL-10; [5]) of the same molecule?
**A.** 681.6 pg/mL

**Q.** And the “IL-10 Concentration” value (IL-10; [6])?
**A.** 883.3 pg/mL and <2.59 pg/mL and 225.5 pg/mL

**Q.** What about the “IL-10 Concentration (pg/ml), Mean” value (IL-10; [6]) of the same molecule?
**A.** 554.4 pg/mL

**Q.** And the “LPS-induced IL-10 (in words)” value (IL-10; [7])?
**A.** significantly reduced

**Q.** And the “MMP-3 Concentration, Mean” value (MMP-3; [8])?
**A.** 7336.4 pg/mL

**Q.** And the “MMP-3 Concentration” value (MMP-3; [8])?
**A.** 7512.0 pg/mL and 7323.6 pg/mL and 7173.5 pg/mL

**Q.** And the “MMP-3 Concentration, Mean” value (MMP-3; [9])?
**A.** 7638.4 pg/mL

**Q.** What about the “MMP-3 Concentration” value (MMP-3; [9]) of the same molecule?
**A.** 7474.3 pg/mL and 7928.9 pg/mL and 7512.0 pg/mL

**Q.** And the “MMP-3 Concentration, Mean” value (MMP-3; [10])?
**A.** 7136.1 pg/mL

**Q.** What about the “MMP-3 Concentration” value (MMP-3; [10]) of the same molecule?
**A.** 7248.5 pg/mL and 7098.6 pg/mL and 7061.2 pg/mL

**Q.** What about the “MMP-3 Concentration, Mean” value (MMP-3; [11]) of the same molecule?
**A.** 6802.1 pg/mL

**Q.** What about the “MMP-3 Concentration” value (MMP-3; [11]) of the same molecule?
**A.** 6282.7 pg/mL and 6800.1 pg/mL and 7323.6 pg/mL

**Q.** What about the “MMP-3 Concentration, Mean” value (MMP-3; [12]) of the same molecule?
**A.** 6735.1 pg/mL

**Q.** What about the “MMP-3 Concentration” value (MMP-3; [12]) of the same molecule?
**A.** 7248.5 pg/mL and 7474.3 pg/mL and 5482.5 pg/mL

**Q.** What about the “MMP-3 Concentration, Mean” value (MMP-3; [13]) of the same molecule?
**A.** 6625.8 pg/mL

**Q.** And the “MMP-3 Concentration” value (MMP-3; [13])?
**A.** 7776.9 pg/mL and 5374.6 pg/mL and 6725.8 pg/mL

**Q.** And the “LPS-induced MMP3 (in words)” value (MMP-3; [7])?
**A.** significantly reduced

**Q.** And the “IL-8/CXCL8 Concentration, Mean” value (IL-8/CXCL8; [1])?
**A.** 54720.2 pg/mL

**Q.** And the “IL-8/CXCL8 Concentration” value (IL-8/CXCL8; [1])?
**A.** 55905.6 pg/mL and 51994.7 pg/mL and 56260.2 pg/mL

**Q.** What about the “IL-8/CXCL8 Concentration, Mean” value (IL-8/CXCL8; [2]) of the same molecule?
**A.** 61143.7 pg/mL

**Q.** What about the “IL-8/CXCL8 Concentration” value (IL-8/CXCL8; [2]) of the same molecule?
**A.** 61568.6 pg/mL and 60755.7 pg/mL and 61106.8 pg/mL

**Q.** What about the “IL-8/CXCL8 Concentration, Mean” value (IL-8/CXCL8; [3]) of the same molecule?
**A.** 52309.1 pg/mL

**Q.** And the “IL-8/CXCL8 Concentration” value (IL-8/CXCL8; [3])?
**A.** 52927.0 pg/mL and 52269.8 pg/mL and 51730.5 pg/mL

**Q.** And the “IL-8/CXCL8 Concentration, Mean” value (IL-8/CXCL8; [4])?
**A.** 46534.3 pg/mL

**Q.** What about the “IL-8/CXCL8 Concentration” value (IL-8/CXCL8; [4]) of the same molecule?
**A.** 45587.7 pg/mL and 43107.6 pg/mL and 50907.7 pg/mL

**Q.** What about the “IL-8/CXCL8 Concentration, Mean” value (IL-8/CXCL8; [5]) of the same molecule?
**A.** 46922.1 pg/mL

**Q.** And the “IL-8/CXCL8 Concentration” value (IL-8/CXCL8; [5])?
**A.** 54235.8 pg/mL and 55272.7 pg/mL and 31257.8 pg/mL

**Q.** And the “IL-8/CXCL8 Concentration, Mean” value (IL-8/CXCL8; [6])?
**A.** 49501.9 pg/mL

**Q.** What about the “IL-8/CXCL8 Concentration” value (IL-8/CXCL8; [6]) of the same molecule?
**A.** 66288.2 pg/mL and 31741.3 pg/mL and 50476.2 pg/mL

**Q.** What about the “LPS-induced IL-8 (in words)” value (IL-8/CXCL8; [7]) of the same molecule?
**A.** significantly reduced

— US20230146455A1, “TREATMENT OF INFLAMMATORY DISEASES WITH PEPTIDES AND PHARMACEUTICAL COMPOSITIONS” (Yuyu Pharma, Inc., priority 2020, published 2023)
